The values that follow come from patent US20090176726A1, “METHODS FOR TREATING MITF-RELATED DISORDERS” (priority 2005, published 2009).

Each structure is given as a SMILES string. Like-named read-outs stand apart in the source and are kept apart here.

Assay [1] has as its system MITF. In kind it is cell-based, human.
Assay [2] relates to MITF. The experiment in a line: MITF protein level in human melanoma cells (UACC62). In kind it is cell-based.
The test system of assay [3] is HIF-1α. The format is cell-based, human.
Assay [4] relates to HIF-1α. The experiment in a line: HIF-1α protein level in human melanoma cells (UACC62). The format is cell-based.
In another assay the test system is MITF mRNA. The format is cell-based, human.
The next assay has as its system FoxD1. In kind it is cell-based, human.
Assay [5] relates to MITF. Briefly: MITF expression in UACC62 cells transfected with constitutive MITF vector or empty vector. The conditions noted are these: increasing levels of DMOG. The format is cell-based, human. From the text: (§1) Human melanoma cells (UACC62) were transfected with a vector that constitutively expresses MITF off a promoter different from its natural promoter. As a control, other cells were transfected with empty vector. Both cell types were exposed to increasing levels of DMOG, which mimics certain aspects of hypoxia in upregulating HIF.

Assay [6] has as its system Human melanoma cells (UACC62). The experiment in a line: Cell death of transfected UACC62 cells exposed to DMOG. The format is cell-based.
Text: as §1

Where [7] appears, read: UACC62 cells, 200 μM DFO, 0, 2, 6, 8 and 24 hrs, FIG. 4B.
Setting [8] is: UACC62 cells transformed with empty vector.

As to `[Cl-].[Cl-].[Co+2]` [CoCl2], the “level of MITF protein” value in the assay on MITF [1] is “decreased as CoCl2 was increased”. Moreover, in the assay on MITF [2], the MITF protein levels entry is listed as “decreased”, the “downregulation of MITF by CoCl2” value is recorded as “substantially blocked” and the “level of MITF protein” value was “decreased”. In addition, in the assay on HIF-1α [3], the “level of HIF-1α” value is “increased as CoCl2 was increased”. In the assay on HIF-1α [4], the HIF-1α levels result is listed as “increased” and the “level of HIF-1α protein” value is on record as “increased”. Also, the “MITF mRNA levels” value with MITF mRNA is listed as “decreased”. The “FoxD1 expression (microarray)” value with FoxD1 was “upregulated”.
With `CC(=O)N(O)CCCCCNC(=O)CCC(=O)N(O)CCCCCNC(=O)CCC(=O)N(O)CCCCCN` [DFO, desferrioxamine], in the assay with MITF [2] (setting [7]), the MITF protein levels result is on record as “decreased steadily”. Further, the HIF-1α protein levels result in the assay on HIF-1α [4] (setting [7]) was “increased steadily”.
As to `COC(=O)CNC(=O)C(=O)OC` [DMOG, dimethyl-oxalylglycine], the “level of MITF protein” value with MITF [2] (UACC62 cells, 1 mM DMOG, 0, 2, 6, 8 and 24 hrs, FIG. 4A) is on record as “decreased”. The “HIF-1α levels at 24 hours” value in the assay on HIF-1α [4] (UACC62 cells, 1 mM DMOG, 24 hours compared with 8 hours, FIG. 4A) is recorded as “somewhat lower than at 8 hours”. Further, the “HIF-1α protein level, 2 to 8 hours” value in the assay with HIF-1α [4] (UACC62 cells, 1 mM DMOG, FIG. 4A) was “increased steadily”. In addition, the MITF expression result with MITF [5] (setting [8]) is reported as “significant decrease”; in the assay with MITF [5] (UACC62 cells transformed with vector that constitutively expresses MITF), “did not exhibit a detectable decrease”. For the same molecule, the cell death entry is listed as “protected from cell death” in assay [6] (UACC62 cells that constitutively express MITF, at DMOG levels lethal to empty vector cells) and “lethal” in assay [6] (setting [8]).
